Test results as given in US9783547B2, “Water soluble 4-azapodophyllotoxin analogs” (CENTRE NATIONAL DE LA RECHERCHE SCIENTIFIQUE (CNRS), priority 2014, dated 2017).
Entries after “also recorded” stand apart in the source; their conditions may differ.

Columns and labels:
[1] = tested on: colon 26 carcinoma; experiment: Antitumor activity in colon 26 carcinoma bearing mice; details: for Tumor Log10 cell kill: [(T − C)/3.32] × Td, Td 2 days
[2] = tested on: tubulin; experiment: Tubulin polymerization inhibition assay (DAPI fluorescence); type: biochemical; details: tubulin 1 mg/ml, DAPI; read-out: IPT (inhibition of tubulin polymerization) IC50
Text: Fluorescence was then read at the excitation wavelength of 360 nm and emission of 450 nm.

[3] = tested on: HT29; experiment: Cytotoxicity assay for human cancer cells (MTS); type: cell-based; details: HT-29, HT29 colorectal adenocarcinoma, 72 h, read-out: IC 50 value
Procedure: (§1) Human cells were grown in DMEM medium supplemented with 10% fetal calf serum (Invitrogen), in the presence of penicillin, streptomycin and amphotericin B (Fungizone) in 75 cm^2 flask under 5% CO2. Cells were plated in 96-well tissue culture microplates at a density of 650 cells/well in 200 μl medium and treated 24 h later with the compound dissolved in DMSO at concentrations ranging from 0.5-10 μM applied using an automated benchstation (Beckman Biomek 3000). Controls received the same volume of DMSO as the test wells (1% final concentration). After a 72 h exposure time, MTS reagent (Promega) was added and incubated for 3 h at 37° C. and the absorbance was read at 490 nm. Results are expressed as the inhibition of cell proliferation calculated as the ratio [(OD490 treated/OD490 control)×100].

[4] = tested on: MCF7R; experiment: Cytotoxicity assay for human cancer cells (MTS); type: cell-based; details: MCF7R breast ER+ (multidrug resistant), 72 h, read-out: IC 50 value
Procedure: as §1

[5] = tested on: HL60; experiment: Cytotoxicity assay for human cancer cells (MTS); type: cell-based; details: HL-60, HL60 acute promyelocytic leukemia, 72 h, read-out: IC 50 value
Procedure: as §1

[6] = tested on: HCT15; experiment: Cytotoxicity assay for human cancer cells (MTS); type: cell-based; details: HCT-15, HCT15 colon adenocarcinoma, 72 h, read-out: IC 50 value
Procedure: as §1

[7] = tested on: U937; experiment: Cytotoxicity assay for human cancer cells (MTS); type: cell-based; details: U-937, U937 histiocytic lymphoma, 72 h, read-out: IC 50 value
Procedure: as §1

[8] = tested on: OVCAR8; experiment: Cytotoxicity assay for human cancer cells (MTS); type: cell-based; details: OVCAR-8, OVCAR8 ovarian adenocarcinoma, 72 h, read-out: IC 50 value
Procedure: as §1

[9] = tested on: MDA231; experiment: Cytotoxicity assay for human cancer cells (MTS); type: cell-based; details: MDA-MB-231, MDA231 breast ER− (hormone independent), 72 h, read-out: IC 50 value
Procedure: as §1

[10] = tested on: HL60R; experiment: Cytotoxicity assay for human cancer cells (MTS); type: cell-based; details: HL60R acute promyelocytic leukemia-multidrug resistant, 72 h, read-out: IC 50 value
Procedure: as §1

[11] = tested on: MCF7; experiment: Cytotoxicity assay for human cancer cells (MTS); type: cell-based; details: MCF7 breast ER+ (hormone dependent), 72 h, read-out: IC 50 value
Procedure: as §1

[12] = tested on: K562; experiment: Cytotoxicity assay for human cancer cells (MTS); type: cell-based; details: K562 chronic myelogenous leukemia, 72 h, read-out: IC 50 value
Procedure: as §1

[13] = tested on: MIA PaCa-2; experiment: Cytotoxicity assay for human cancer cells (MTS); type: cell-based; details: MIA PaCa-2 pancreatic carcinoma, 72 h, read-out: IC 50 value
Procedure: as §1

[14] = tested on: EAhy 926 endothelial cell line; experiment: Endothelial cell morphology evaluation (rounding up); type: cell-based; details: Homo sapiens, EA.hy 926; 2 h incubation; rounding up of more than 15% of cells; read-out: Cmarr EA.hy 926: lowest concentration at which cell rounding up was observed
Text: To assess the effects of the compounds on the morphology of endothelial cells, the EAhy 926 endothelial cell line was used, which is derived from the fusion of human umbilical vein endothelial cells (HUVEC) with the permanent human cell line A549 (Edgell et al, Proc. Natl. Acad. Sci. U.S.A., 1983, vol 80, issue 12, 3734-3737). The EAhy 926 cell line is considered as a good representative of native HUVEC because it expresses most of the biochemical markers of parental HUVEC (Bouis et al., Angiogenesis., 2001, 4, 91-102). EAhy 926 cells were grown in DMEM containing 2 mM L-glutamine, 10% foetal bovine serum, 100 U/mL penicillin and 100 μg/mL streptomycin in a humidified atmosphere (37° C., 5% CO2). Exponentially growing EAhy 926 cells were plated onto 96 well plates at 5000 cells/100 μL/well. Twenty-four hours after plating, the medium was aspirated, and 100 μL of medium containing the test compound was added to the well containing the cells (in triplicate) and incubated for 2 h (37° C., 5% CO2). The highest concentration used was 100 μM followed by serial two-fold dilutions down to low nanomolar concentrations, if needed for the most morphologically active compounds. After the 2 h-incubation period, digital photographs were taken of representative centre areas of each well at a magnification of 100× and 200×. The results are presented as the minimum concentration that could elicit the rounding up of more than 15% of cells in a field in order to exclude normal mitotic cells which is less that 15% in control 1% DMSO treated cells. Triplicate concentrations on the same plate were routinely carried out. CA4 was included in the experiments as a positive internal standard.
Compounds of the invention were first tested on EAhy 926 endothelial cells, which are transformed HUVEC (human umbilical vein endothelial cells). These cells undergo a rounding up upon a short 2 hour exposure to vascular disrupting agents, e.g. combretastatin A4.

[15] = tested on: human cancer cell lines; experiment: Cytotoxicity on the whole panel of human cancer cell lines (MTS); type: cell-based; details: all human cancer cell lines of Table 2; read-out: IC50 values, range over all cell lines
[16] = tested on: Lewis lung carcinoma; experiment: Antitumor activity in Lewis lung carcinoma bearing mice; details: for Drug death: deaths/animals; for Tumor Log10 cell kill: [(T − C)/3.32] × Td, Td 2.2 days
Procedure: Animal body weights included the tumor weights.
The percent T/C value is calculated as follows:

[17] = 31 mg/kg i.p. days 4, 5, 11, 12, 14, 15
[18] = 50 mg/kg i.p. days 4, 5, 11, 12, 14, 15
[19] = 50 mg/kg i.p. days 4-8 and 11-15
[20] = 55 mg/kg i.p. days 4-8 and 11-15
[21] = 55 mg/kg i.p. days 4-8 and 11-15, hydrochloride

SMILES: COc1cc(Nc2c3c(nc4cc5c(cc24)OCO5)CCCC3=O)cc(OC)c1OC.Cl [SGR307.HCl, 6,7-(Methylenedioxy)-9-(3,4,5-trimethoxyphenylamino)-3,4-dihydroacridin-1(2H)-one, hydrochloride]
- T − C (day), tumor growth delay [1, 17]: 7.7 days
- Time for median tumor to reach 750 mg [1, 17]: 21.2 days
- % T/C day 15 [1, 17]: 15.4%
- Mean tumor vol (mm^3) day 15 [1, 17]: 168 mm^3
- Mean body wt change [g/mouse (day of nadir)] ([1]; 31 mg/kg i.p. days 4, 5, 11, 12, 14, 15, nadir d6): −0.7 g/mouse
- Tumor Log10 cell kill ([1]; 31 mg/kg i.p.): 4.6
- T − C (day), tumor growth delay [1, 18]: 13.7 days
- Time for median tumor to reach 750 mg [1, 18]: 27.2 days
- % T/C day 15 [1, 18]: 2.8%
- Mean tumor vol (mm^3) day 15 [1, 18]: 31 mm^3
- Mean body wt change [g/mouse (day of nadir)] ([1]; 50 mg/kg i.p. days 4, 5, 11, 12, 14, 15, nadir d7): −2.6 g/mouse
- Tumor Log10 cell kill ([1]; 50 mg/kg i.p.): 8.3
- Body weight loss ([1]; 80 mg/kg i.p. days 4, 5, 11, 12, 14, 15): > 20%
- Mean body wt change [g/mouse (day of nadir)] ([1]; 80.6 mg/kg i.p. days 4, 5, 11, 12, 14, 15, nadir d14): −5.4 g/mouse
- IC50 [2]: 1090 nM
- IC50 [3]: 129 nM
- IC50 [4]: 121 nM
- IC50 [5]: 90 nM
- IC50 [6]: 91 nM
- IC50 [7]: 121 nM
- IC50 [8]: 138 nM
- IC50 [9]: 79 nM
- IC50 [10]: 164 nM
- IC50 [11]: 76 nM
- IC50 [12]: 83 nM
- IC50 [13]: 109 nM
- minimal effective concentration [14]: 0.06 µM
- IC50 [15]: 30 to 380 nM
- T − C (day), tumor growth delay [16, 19]: 4.5 days
- Time for median tumor to reach 500 mm^3 [16, 19]: 14.1 days
- T/C day 18 (%) [16, 19]: 36.2%
- Mean tumor volume (mm^3) on day 18 (range) ([16]; 50 mg/kg i.p. days 4-8 and 11-15, range 297-2230): 1158 mm^3
- Drug death [16, 19]: 0/5
- Note (activity / toxicity assessment) ([16]; 50 mg/kg i.p. days 4-8 and 11-15, hydrochloride): not toxic; also recorded: highly active
- Mean body wt change [g/mouse (day of nadir)] ([16]; 50 mg/kg i.p. days 4-8 and 11-15, nadir d6): −0.5 (d6) g/mouse
- Tumor Log10 cell kill ([16]; 50 mg/kg i.p., hydrochloride): 3
- Time for median tumor to reach 500 mm^3 [16, 20]: 17.4 days
- T/C day 18 (%) [16, 20]: 19.3%
- Mean tumor volume (mm^3) on day 18 (range) ([16]; 55 mg/kg i.p. days 4-8 and 11-15, range 457-806): 619 mm^3
- Drug death [16, 20]: 0/5
- Note (activity / toxicity assessment) [16, 21]: not toxic; also recorded: highly active
- T − C (day), tumor growth delay [16, 21]: 7.8 days
- Mean body wt change [g/mouse (day of nadir)] ([16]; 55 mg/kg i.p. days 4-8 and 11-15, nadir d8): −2.4 (d8) g/mouse
- Tumor Log10 cell kill ([16]; 55 mg/kg i.p.): 5.2
